Assay results: PubChem BioAssay AID330 (DTP/NCI, 2004)
Several values for one entry are separate records, joined by “and”; a condition that tells them apart may be missing. Equal values may be shown once. Inconclusive results and toxic doses are left out.

System: P388 leukemia ip, CD2F1 mice, survival T/C
Test: NCI In Vivo Anticancer Drug Screen. Data for tumor model P388 Leukemia (intraperitoneal) in CD2F1 (CDF1) mice
Settings: endpoint: median survival time, higher = longer survival
Summary of the method: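 Mice carrying the transplanted tumor received test compound or vehicle. Survival was recorded in each group, and the value is the treated-group measurement divided by that of the vehicle-treated control group.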

[1] = dose: 50.0 mg/kg/injection, schedule: Q01DX005 (ip), vehicle: saline
[2] = dose: 120.0 mg/kg/injection, schedule: Q01DX005 (ip), vehicle: Klucel (hydroxypropylcellulose) (HPC)
[3] = dose: 240.0 mg/kg/injection, schedule: Q01DX005 (ip), vehicle: Klucel (hydroxypropylcellulose) (HPC)
[4] = dose: 50.0 mg/kg/injection, schedule: Q01DX009 (ip), vehicle: saline
[5] = dose: 100.0 mg/kg/injection, schedule: Q01DX009 (ip), vehicle: saline
[6] = dose: 200.0 mg/kg/injection, schedule: Q01DX009 (ip), vehicle: saline
[7] = dose: 100.0 mg/kg/injection, schedule: Q01DX009 (ip), vehicle: saline with Tween-80
[8] = dose: 200.0 mg/kg/injection, schedule: Q01DX009 (ip), vehicle: saline with Tween-80
[9] = dose: 50.0 mg/kg/injection, schedule: Q01DX009 (ip), vehicle: saline with Tween-80
[10] = dose: 60.0 mg/kg/injection, schedule: Q01DX005 (ip), vehicle: saline with Tween-80
[11] = dose: 120.0 mg/kg/injection, schedule: Q01DX005 (ip), vehicle: saline with Tween-80
[12] = dose: 240.0 mg/kg/injection, schedule: Q01DX005 (ip), vehicle: saline with Tween-80

Compound: OCc1ccc(O)c(O)c1
- T/C [1]: 116 % of control
- T/C (dose: 100.0 mg/kg/injection, schedule: Q01DX005 (ip), vehicle: saline): 123 % of control
- T/C (dose: 200.0 mg/kg/injection, schedule: Q01DX005 (ip), vehicle: saline): 123 % of control
- T/C (dose: 400.0 mg/kg/injection, schedule: Q01DX005 (ip), vehicle: saline): 120 % of control

Compound: COc1ccc(-n2c(SCC(=O)NC(=O)Nc3ccccc3)nc3c(Br)cc(Br)cc3c2=O)cc1
- T/C (dose: 7.5 mg/kg/injection, schedule: Q01DX005 (ip), vehicle: Klucel (hydroxypropylcellulose) (HPC)): 97 % of control
- T/C (dose: 15.0 mg/kg/injection, schedule: Q01DX005 (ip), vehicle: Klucel (hydroxypropylcellulose) (HPC)): 92 % of control
- T/C (dose: 30.0 mg/kg/injection, schedule: Q01DX005 (ip), vehicle: Klucel (hydroxypropylcellulose) (HPC)): 86 % of control and 94 % of control
- T/C [2]: 90 % of control
- T/C [3]: 101 % of control

Compound: Cc1c2ccncc2c(C)c2c1[nH]c1ccc(O)cc12
- T/C (dose: 6.25 mg/kg/injection, schedule: Q01DX009 (ip), vehicle: saline): 111 % of control
- T/C (dose: 6.25 mg/kg/injection, schedule: Q01DX009 (ip), vehicle: suspension in saline): 150 % of control
- T/C (dose: 12.5 mg/kg/injection, schedule: Q01DX009 (ip), vehicle: saline): 169 % of control
- T/C (dose: 12.5 mg/kg/injection, schedule: Q01DX009 (ip), vehicle: suspension in saline): 167 % of control

Compound: Cc1cccnc1NC(=S)Nc1ccccc1Cl
- T/C (dose: 12.5 mg/kg/injection, schedule: Q01DX009 (ip), vehicle: gum acacia): 104 % of control
- T/C (dose: 25.0 mg/kg/injection, schedule: Q01DX009 (ip), vehicle: gum acacia): 96 % of control
- T/C (dose: 50.0 mg/kg/injection, schedule: Q01DX009 (ip), vehicle: gum acacia): 104 % of control
- T/C (dose: 100.0 mg/kg/injection, schedule: Q01DX009 (ip), vehicle: gum acacia): 95 % of control

Compound: COC1(OC)C(C#N)=C(c2ccccc2)C1(OC)OC
- T/C (dose: 60.0 mg/kg/injection, schedule: Q01DX005 (ip), vehicle: Klucel (hydroxypropylcellulose) (HPC)): 115 % of control
- T/C [2]: 102 % of control
- T/C [3]: 101 % of control

Compound: COc1ccc(CCNC(=O)CCN2C(=O)CCC2=O)cc1OC
- T/C (dose: 100.0 mg/kg/injection, schedule: Q01DX009 (ip), vehicle: saline sonified): 105 % of control
- T/C (dose: 200.0 mg/kg/injection, schedule: Q01DX009 (ip), vehicle: saline sonified): 105 % of control
- T/C (dose: 400.0 mg/kg/injection, schedule: Q01DX009 (ip), vehicle: saline sonified): 110 % of control

Compound: COc1ccc(C(=O)Oc2ccc[nH]c2=O)cc1
- T/C [4]: 102 % of control and 107 % of control
- T/C [5]: 99 % of control and 102 % of control
- T/C [6]: 98 % of control and 102 % of control
- T/C (dose: 400.0 mg/kg/injection, schedule: Q01DX009 (ip), vehicle: saline): 104 % of control and 93 % of control

Compound: CC(=O)CC1(O)C(=O)Nc2ccc(Br)cc21 (centres undefined)
- T/C (dose: 50.0 mg/kg/injection, schedule: Q01DX009 (ip), vehicle: Klucel (hydroxypropylcellulose) (HPC)): 100 % of control
- T/C (dose: 100.0 mg/kg/injection, schedule: Q01DX009 (ip), vehicle: Klucel (hydroxypropylcellulose) (HPC)): 108 % of control
- T/C (dose: 200.0 mg/kg/injection, schedule: Q01DX009 (ip), vehicle: Klucel (hydroxypropylcellulose) (HPC)): 92 % of control

Compound: CCOP(=S)(N1CC1(C)C)N1CC1(C)C (centres undefined)
- T/C (dose: 25.0 mg/kg/injection, schedule: Q01DX009 (ip), vehicle: saline): 109 % of control
- T/C [4]: 109 % of control
- T/C [7]: 154 % of control
- T/C [5]: 109 % of control
- T/C (dose: 100.0 mg/kg/injection, schedule: Q04DX003 (ip), vehicle: saline with Tween-80): 109 % of control
- T/C (dose: 264.0 mg/kg/injection, schedule: Q04DX003 (ip), vehicle: saline with Tween-80): 172 % of control
- T/C (dose: 400.0 mg/kg/injection, schedule: Q04DX003 (ip), vehicle: saline with Tween-80): 168 % of control and 204 % of control

Compound: COc1cc(C(O)C(CO)Oc2c(OC)cc(C3OCC4C(c5cc(OC)c(O)c(OC)c5)OCC34)cc2OC)ccc1O (centres undefined)
- T/C (dose: 5.0 mg/kg/injection, schedule: Q01DX005 (ip), vehicle: sodium bicarbonate): 107 % of control
- T/C (dose: 10.0 mg/kg/injection, schedule: Q01DX005 (ip), vehicle: sodium bicarbonate): 109 % of control
- T/C (dose: 20.0 mg/kg/injection, schedule: Q01DX005 (ip), vehicle: sodium bicarbonate): 106 % of control
- T/C (dose: 40.0 mg/kg/injection, schedule: Q01DX005 (ip), vehicle: sodium bicarbonate): 100 % of control

Compound: CN(C)C(=O)C1CCC(=O)N1 (centres undefined)
- T/C (dose: 60.0 mg/kg/injection, schedule: Q01DX005 (ip), vehicle: saline): 100 % of control
- T/C (dose: 120.0 mg/kg/injection, schedule: Q01DX005 (ip), vehicle: saline): 109 % of control
- T/C (dose: 240.0 mg/kg/injection, schedule: Q01DX005 (ip), vehicle: saline): 105 % of control

Compound: ClC(Cl)(Cl)SSC(=Nc1ccccc1)SSC(Cl)(Cl)Cl
- T/C [8]: 155 % of control

Compound: O=P1(O)CC2=C(CC=CC2)C1
- T/C [9]: 98 % of control
- T/C [7]: 89 % of control
- T/C [8]: 98 % of control

Compound: CC1CCC(C(C)C)C(OC(=O)c2ccc[n+](C)c2)C1 (centres undefined)
- T/C (dose: 12.5 mg/kg/injection, schedule: Q01DX005 (ip), vehicle: saline): 105 % of control
- T/C (dose: 25.0 mg/kg/injection, schedule: Q01DX005 (ip), vehicle: saline): 116 % of control
- T/C [1]: 100 % of control and 105 % of control

Compound: Cc1[nH]c(C(=O)NN)c(C)c1C(=O)NN
- T/C (dose: 25.0 mg/kg/injection, schedule: Q01DX009 (ip), vehicle: saline with Tween-80): 91 % of control
- T/C [9]: 95 % of control
- T/C [7]: 91 % of control

Compound: O=S(=O)(c1cnccc1N1CCN(CCO)CC1)N1CCCC1
- T/C [4]: 106 % of control
- T/C [5]: 101 % of control
- T/C [6]: 87 % of control

Compound: Cc1cccc2ncc([N+](=O)[O-])n12
- T/C [9]: 114 % of control and 88 % of control
- T/C [7]: 102 % of control and 89 % of control

Compound: CC(C)c1ccc2c[n+]3ccccc3cc2c1
- T/C (dose: 6.25 mg/kg/injection, schedule: Q01DX005 (ip), vehicle: Klucel (hydroxypropylcellulose) (HPC)): 100 % of control and 108 % of control
- T/C (dose: 12.5 mg/kg/injection, schedule: Q01DX005 (ip), vehicle: Klucel (hydroxypropylcellulose) (HPC)): 106 % of control and 112 % of control

Compound: COc1cccc2c1C(=O)c1c(O)c3c(c(O)c1C2=O)C[C@@](O)(/C(C)=N/NC(=O)c1ccc(N(C)C)cc1)C[C@@H]3OC1CC(N)C(O)C(C)O1 (some centres undefined)
- T/C (dose: 0.12 mg/kg/injection, schedule: Q01DX009 (ip), vehicle: water): 94 % of control
- T/C (dose: 0.25 mg/kg/injection, schedule: Q01DX009 (ip), vehicle: water): 111 % of control
- T/C (dose: 0.5 mg/kg/injection, schedule: Q01DX009 (ip), vehicle: water): 150 % of control and 154 % of control
- T/C (dose: 1.0 mg/kg/injection, schedule: Q01DX009 (ip), vehicle: water): 154 % of control and 164 % of control
- T/C (dose: 2.0 mg/kg/injection, schedule: Q01DX009 (ip), vehicle: water): 164 % of control and 181 % of control
- T/C (dose: 4.0 mg/kg/injection, schedule: Q01DX009 (ip), vehicle: water): 157 % of control and 172 % of control
- T/C (dose: 8.0 mg/kg/injection, schedule: Q01DX009 (ip), vehicle: water): 86 % of control
- T/C (dose: 10.0 mg/kg/injection, schedule: Q01DX001 (ip), vehicle: water): 159 % of control
- T/C (dose: 16.0 mg/kg/injection, schedule: Q01DX009 (ip), vehicle: water): 89 % of control
- T/C (dose: 20.0 mg/kg/injection, schedule: Q01DX001 (ip), vehicle: water): 166 % of control
- T/C (dose: 40.0 mg/kg/injection, schedule: Q01DX001 (ip), vehicle: water): 115 % of control

Compound: COc1cc2c(OC)c(c1)CCC1=CC(=O)C(=CC1=O)CC2
- T/C (dose: 100.0 mg/kg/injection, schedule: Q01DX001 (ip), vehicle: Klucel (hydroxypropylcellulose) (HPC)): 99 % of control
- T/C (dose: 200.0 mg/kg/injection, schedule: Q01DX001 (ip), vehicle: Klucel (hydroxypropylcellulose) (HPC)): 96 % of control

Compound: O=C1c2ccccc2C(=O)N1O
- T/C [4]: 93 % of control
- T/C [5]: 100 % of control

Compound: CC(=O)C(=N/O)/C(C)=N/NC(=O)CC#N
- T/C (dose: 100.0 mg/kg/injection, schedule: Q04DX009 (ip), vehicle: saline): 101 % of control
- T/C (dose: 200.0 mg/kg/injection, schedule: Q04DX009 (ip), vehicle: saline): 100 % of control

Compound: O=C(CSCc1c(F)cccc1Cl)Nc1ccc(F)c(Cl)c1
- T/C [10]: 97 % of control
- T/C [11]: 91 % of control
- T/C [12]: 91 % of control

Compound: COc1cc(C(Nc2ncccn2)c2cc3c(cc2O)OCO3)cc(OC)c1OC (centres undefined)
- T/C [10]: 100 % of control
- T/C [11]: 92 % of control
- T/C [12]: 90 % of control
